These are literature values, as cited in patent US20070237815A1 (priority 2006, published 2007).

Structures are written as SMILES.

The conditions of this data set: in the elderly.

Take `NS(=O)(=O)c1cc(C2(O)NC(=O)c3ccccc32)ccc1Cl` (stereo not shown) [chlorthalidone]: the half-life entry was “approximately 72 hours”.
